Read-outs that look alike come from different tables or passages of the source.
Biological target: T1, F508del (Homo sapiens, UniProt P13569, DEL508-508)
T1 construct: expressed in transfected cells
Experiment: Protocol 2: FRET membrane potential optical assay (VIPR), identification of correction compounds
Type: cell-based
Outline: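 FRET read-out (CC2-DMPE donor, DiSBAC2(3) voltage-sensitive acceptor) of membrane depolarization on VIPR II. Corrector candidates incubated 16 hrs at 37° C. with NIH3T3 cells expressing F508del; temperature correction at 27° C. as positive control; stimulation by 10 μM forskolin, 20 μM genistein, chloride-free gluconate bath.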

[1] = Table 3, compounds of Table 1 as modulators of CFTR activity, protocol not stated
[2] = F508del CFTR modulator activity, compounds of Table 1, read-out: EC30

T1 sequence (P13569 with tags, fused parts or gaps DEL508-508): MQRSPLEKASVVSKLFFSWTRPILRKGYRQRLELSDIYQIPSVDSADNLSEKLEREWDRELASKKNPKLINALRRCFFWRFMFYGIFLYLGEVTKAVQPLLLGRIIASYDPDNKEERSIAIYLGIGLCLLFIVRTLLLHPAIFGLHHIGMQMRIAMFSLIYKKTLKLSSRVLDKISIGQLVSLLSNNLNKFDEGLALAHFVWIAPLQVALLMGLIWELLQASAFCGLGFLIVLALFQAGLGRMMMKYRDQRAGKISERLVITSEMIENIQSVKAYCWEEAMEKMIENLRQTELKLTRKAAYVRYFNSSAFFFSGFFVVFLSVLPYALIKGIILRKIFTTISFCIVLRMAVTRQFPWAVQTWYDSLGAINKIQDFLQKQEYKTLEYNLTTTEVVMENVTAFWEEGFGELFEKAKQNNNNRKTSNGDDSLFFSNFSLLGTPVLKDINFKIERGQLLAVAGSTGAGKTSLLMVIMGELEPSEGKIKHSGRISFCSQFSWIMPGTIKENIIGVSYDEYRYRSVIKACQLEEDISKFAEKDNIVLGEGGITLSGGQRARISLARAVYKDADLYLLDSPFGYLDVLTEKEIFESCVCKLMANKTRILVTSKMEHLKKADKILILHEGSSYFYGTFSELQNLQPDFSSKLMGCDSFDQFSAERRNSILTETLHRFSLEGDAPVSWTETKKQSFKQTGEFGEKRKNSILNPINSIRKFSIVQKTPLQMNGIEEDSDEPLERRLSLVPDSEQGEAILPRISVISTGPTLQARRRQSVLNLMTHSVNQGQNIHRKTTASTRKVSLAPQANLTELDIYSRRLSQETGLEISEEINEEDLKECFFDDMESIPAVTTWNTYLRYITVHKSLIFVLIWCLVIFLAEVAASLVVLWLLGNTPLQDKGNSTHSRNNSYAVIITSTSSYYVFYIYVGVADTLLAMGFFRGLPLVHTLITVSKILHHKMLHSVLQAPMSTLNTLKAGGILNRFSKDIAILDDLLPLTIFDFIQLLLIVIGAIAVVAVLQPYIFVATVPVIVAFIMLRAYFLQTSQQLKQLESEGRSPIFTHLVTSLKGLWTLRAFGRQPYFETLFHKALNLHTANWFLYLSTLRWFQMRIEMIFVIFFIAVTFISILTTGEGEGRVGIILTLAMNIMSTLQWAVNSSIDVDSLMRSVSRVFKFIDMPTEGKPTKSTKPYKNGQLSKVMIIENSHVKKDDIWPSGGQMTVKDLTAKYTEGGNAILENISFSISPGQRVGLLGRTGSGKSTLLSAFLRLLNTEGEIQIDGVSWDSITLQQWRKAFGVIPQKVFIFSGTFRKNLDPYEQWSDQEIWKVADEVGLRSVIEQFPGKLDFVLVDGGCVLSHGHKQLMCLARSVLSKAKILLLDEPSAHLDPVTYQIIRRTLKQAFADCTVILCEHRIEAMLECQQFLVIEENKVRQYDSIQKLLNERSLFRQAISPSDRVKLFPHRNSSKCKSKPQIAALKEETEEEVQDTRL

Row | SMILES | EC30 [1] | EC30 [2]
1 | Cc1ccc(-c2nc(C(C)(C)C)ccc2C(=O)NS(=O)(=O)c2cccc(N)c2)c(C)c1 [Compound 5, N-(3-aminophenyl)sulfonyl-6-tert-butyl-2-(2,4-dimethylphenyl)pyridine-3-carboxamide] | ++ (“++” means between 3 uM and 10 uM) | 
2 | CC(C)COc1cc(F)cc(-c2ccc(C(=O)NS(=O)(=O)c3cccc(N)n3)c(N3CC4(CCC4)C3)n2)c1 [Compound 527, N-[(6-amino-2-pyridyl)sulfonyl]-2-(6-azaspiro[3.3]heptan-6-yl)-6-(3-fluoro-5-isobutoxy-phenyl)pyridine-3-carboxamide] | +++ (“+++” means <3 uM) | 
3 | CC(C)c1ccc(-c2nc(C(C)(C)C)ccc2C(=O)NS(=O)(=O)c2cccc(N)c2)cc1 [Compound 314, N-(3-aminophenyl)sulfonyl-6-tert-butyl-2-(4-isopropylphenyl)pyridine-3-carboxamide] | +++ (“+++” means <3 uM) | 
4 | CC1CN(c2ncccc2C(=O)NS(=O)(=O)c2cccc(OC3(C)CCCCCC3)n2)C(C)(C)C1 (centres unmarked) [Compound 2057, N—[[6-(1-methylcycloheptoxy)-2-pyridyl]sulfonyl]-2-(2,2,4-trimethylpyrrolidin-1-yl)pyridine-3-carboxamide] |  | < 3000 nM
5 | Cc1cccc(-c2nc(C(C)(C)C)ccc2C(=O)NS(=O)(=O)c2cccc(N)n2)c1 [Compound 31, N-[(6-amino-2-pyridyl)sulfonyl]-6-tert-butyl-2-(m-tolyl)pyridine-3-carboxamide] | ++ (“++” means between 3 uM and 10 uM) | 
6 | Cc1cc(C)c(Oc2nc(C(C)(C)C)ccc2C(=O)NS(=O)(=O)c2cccc(N)c2)c(C#N)c1 [Compound 221, N-(3-aminophenyl)sulfonyl-6-tert-butyl-2-(2-cyano-4,6-dimethyl-phenoxy)pyridine-3-carboxamide] | +++ (“+++” means <3 uM) | 
7 | COc1ccc(S(=O)(=O)NC(=O)C2c3ccccc3CN2Cc2c(C)cc(C)cc2C)cn1 (centres unmarked) [Compound 200, N-[(6-methoxy-3-pyridyl)sulfonyl]-2-[(2,4,6-trimethylphenyl)methyl]isoindoline-1-carboxamide] | ++ (“++” means between 3 uM and 10 uM) | 
8 | Cc1cc(C)c(Oc2nc(C(C)(C)C)ccc2C(=O)NS(=O)(=O)c2cccc(N)c2)c(C)c1 [Compound 294, N-(3-aminophenyl)sulfonyl-6-tert-butyl-2-(2,4,6-trimethylphenoxy)pyridine-3-carboxamide] | +++ (“+++” means <3 uM) | 
9 | Cc1cc(C)c(CN2Cc3ccccc3C2C(=O)NS(=O)(=O)c2ccccc2)c(C)c1 (centres unmarked) [Compound 6, N-(benzenesulfonyl)-2-[(2,4,6-trimethylphenyl)methyl]isoindoline-1-carboxamide] | +++ (“+++” means <3 uM) | 
10 | Cc1cc(C)c(Oc2nc(C3(C(F)(F)F)CC3)ccc2C(=O)NS(=O)(=O)c2cccc(N)n2)c(C)c1 [Compound 621, N-[(6-amino-2-pyridyl)sulfonyl]-6-[1-(trifluoromethyl)cyclopropyl]-2-(2,4,6-trimethylphenoxy)pyridine-3-carboxamide] | +++ (“+++” means <3 uM) | 
11 | CC(C)COc1cc(F)cc(-c2ccc(C(=O)NS(=O)(=O)c3cccc(N)n3)c(N3CC(F)C3)n2)c1 [Compound 2128, N-[(6-amino-2-pyridyl)sulfonyl]-2-(3-fluoroazetidin-1-yl)-6-(3-fluoro-5-isobutoxy-phenyl)pyridine-3-carboxamide] |  | 3000 to 10000 nM
12 | Cc1cccc(C)c1Oc1nc(C(F)(F)F)ccc1C(=O)NS(=O)(=O)c1cccc(N)c1 [Compound 243, N-(3-aminophenyl)sulfonyl-2-(2,6-dimethylphenoxy)-6-(trifluoromethyl)pyridine-3-carboxamide] | +++ (“+++” means <3 uM) | 
13 | CC1CCN(c2nc(-c3cc(F)cc(OCC4CC4)c3)ccc2C(=O)NS(=O)(=O)c2ccc[nH]c2=O)CC1 [Compound 664, 6-[3-(cyclopropylmethoxy)-5-fluoro-phenyl]-2-(4-methyl-1-piperidyl)-N-[(2-oxo-1H-pyridin-3-yl)sulfonyl]pyridine-3-carboxamide] | +++ (“+++” means <3 uM) | 
14 | Cc1cc(C)c(Cc2oc(C(C)(C)C)nc2C(=O)NS(=O)(=O)c2cccc(N)c2)c(C)c1 [Compound 360, N-(3-aminophenyl)sulfonyl-2-tert-butyl-5-[(2,4,6-trimethylphenyl)methyl]oxazole-4-carboxamide] | +++ (“+++” means <3 uM) | 
15 | Cc1ccc2c(c1)cc(C(=O)NS(=O)(=O)c1cccc(N)n1)n2Cc1c(C)cc(C#N)cc1C [Compound 67, N-[(6-amino-2-pyridyl)sulfonyl]-1-[(4-cyano-2,6-dimethyl-phenyl)methyl]-5-methyl-indole-2-carboxamide] | ++ (“++” means between 3 uM and 10 uM) | 

Now from value to compound:

Row | EC30 [1] | EC30 [2] | SMILES
16 |  | < 3000 nM | COc1ccc2c(c1)CCN(c1cccc(S(=O)(=O)NC(=O)c3cccnc3N3CC(C)CC3(C)C)n1)C2 (centres unmarked) [Compound 2260, N—[[6-(6-methoxy-3,4-dihydro-1H-isoquinolin-2-yl)-2-pyridyl]sulfonyl]-2-(2,2,4-trimethylpyrrolidin-1-yl)pyridine-3-carboxamide]
17 | ++ (“++” means between 3 uM and 10 uM) |  | Cc1cc(C)c(CN2Cc3ccccc3CCC2C(=O)NS(=O)(=O)c2cccc(N)n2)c(C)c1 (centres unmarked) [Compound 690, N-[(6-amino-2-pyridyl)sulfonyl]-2-[(2,4,6-trimethylphenyl)methyl]-1,3,4,5-tetrahydro-2-benzazepine-3-carboxamide]
18 |  | 3000 to 10000 nM | CC(C)Oc1cnn(-c2ccc(C(=O)NS(=O)(=O)c3cccc(N)n3)c(N3C[C@@H](C)CC3(C)C)n2)c1 [Compound 2658, N-[(6-amino-2-pyridyl)sulfonyl]-6-(4-isopropoxypyrazol-1-yl)-2-[(4S)-2,2,4-trimethylpyrrolidin-1-yl]pyridine-3-carboxamide]
19 |  | < 3000 nM | CC1CN(c2ncccc2C(=O)NS(=O)(=O)c2cccc(OCc3ccc(-n4cccn4)cc3)n2)C(C)(C)C1 (centres unmarked) [Compound 2118, N—[[6-[(4-pyrazol-1-ylphenyl)methoxy]-2-pyridyl]sulfonyl]-2-(2,2,4-trimethylpyrrolidin-1-yl)pyridine-3-carboxamide]
20 |  | < 3000 nM | CC(C)CN(C)c1cccc(S(=O)(=O)NC(=O)c2cccnc2N2CC(C)CC2(C)C)n1 (centres unmarked) [Compound 2746]
21 |  | < 3000 nM | CC1CN(c2ncccc2C(=O)NS(=O)(=O)c2cccc(OCc3ccc(Cl)cc3F)n2)C(C)(C)C1 (centres unmarked) [Compound 2182, N—[[6-[(4-chloro-2-fluoro-phenyl)methoxy]-2-pyridyl]sulfonyl]-2-(2,2,4-trimethylpyrrolidin-1-yl)pyridine-3-carboxamide]
22 |  | < 3000 nM | C[C@@H]1CC[C@H](C)N1c1nc(-n2ccc(-c3ccccc3)n2)ccc1C(=O)NS(=O)(=O)C1CC1 [Compound 2676, N-cyclopropylsulfonyl-2-[(2S,5R)-2,5-dimethylpyrrolidin-1-yl]-6-(3-phenylpyrazol-1-yl)pyridine-3-carboxamide]
23 |  | < 3000 nM | C[C@@H]1CN(c2nc(-c3ccc(OC(F)(F)F)cc3)ccc2C(=O)NS(=O)(=O)c2cccnc2N)C(C)(C)C1 [Compound 2223, N-[(2-amino-3-pyridyl)sulfonyl]-6-[4-(trifluoromethoxy)phenyl]-2-[(4S)-2,2,4-trimethylpyrrolidin-1-yl]pyridine-3-carboxamide]
24 |  | 3000 to 10000 nM | COc1ccc(CCNc2cccc(S(=O)(=O)NC(=O)c3cccnc3N3CC(C)CC3(C)C)n2)cc1 (centres unmarked) [Compound 2072, N—[[6-[2-(4-methoxyphenyl)ethylamino]-2-pyridyl]sulfonyl]-2-(2,2,4-trimethylpyrrolidin-1-yl)pyridine-3-carboxamide]
25 |  | < 3000 nM | C[C@@H]1CN(c2nc(-c3ccc4ccn(C)c4c3)ccc2C(=O)NS(=O)(=O)c2cccnc2N)C(C)(C)C1 [Compound 2401, N-[(2-amino-3-pyridyl)sulfonyl]-6-(I-methylindol-6-yl)-2-[(4S)-2,2,4-trimethylpyrrolidin-1-yl]pyridine-3-carboxamide]
26 |  | < 3000 nM | CC1CN(c2ncccc2C(=O)NS(=O)(=O)c2cccc(Nc3ccc(Cl)cn3)n2)C(C)(C)C1 (centres unmarked) [Compound 2656, N—[[6-[(5-chloro-2-pyridyl)amino]-2-pyridyl]sulfonyl]-2-(2,2,4-trimethylpyrrolidin-1-yl)pyridine-3-carboxamide]
27 |  | < 3000 nM | Cc1cn(-c2ccc(C(=O)NS(=O)(=O)c3cccnc3N)c(N3C[C@@H](C)CC3(C)C)n2)nc1OCC(C)(C)C [Compound 2694]
28 |  | < 3000 nM | COc1cc(-c2ccc(C(=O)NS(=O)(=O)c3cccnc3N)c(N3C[C@@H](C)CC3(C)C)n2)cc(F)c1F [Compound 1998, N-[(2-amino-3-pyridyl)sulfonyl]-6-(3,4-difluoro-5-methoxy-phenyl)-2-[(4S)-2,2,4-trimethylpyrrolidin-1-yl]pyridine-3-carboxamide]
29 |  | 3000 to 10000 nM | Nc1cccc(S(=O)(=O)NC(=O)c2cccnc2N2CCCC(c3ccccc3)C2)n1 (single isomer, unassigned) [Compound 2615]
30 |  | 3000 to 10000 nM | CC1CN(c2ncccc2C(=O)NS(=O)(=O)c2cccc(Oc3ccc4c(c3)CCCC4=O)n2)C(C)(C)C1 (centres unmarked) [Compound 2523, N—[[6-(1-oxotetralin-6-yl)oxy-2-pyridyl]sulfonyl]-2-(2,2,4-trimethylpyrrolidin-1-yl)pyridine-3-carboxamide]
31 | +++ (“+++” means <3 uM) |  | CC(C)CCOc1cc(F)cc(-c2ccc(C(=O)NS(=O)(=O)c3ccc[nH]c3=O)c(N3[C@H](C)CC[C@@H]3C)n2)c1 [Compound 688, 2-[(2S,5R)-2,5-dimethylpyrrolidin-1-yl]-6-(3-fluoro-5-isopentyloxy-phenyl)-N-[(2-oxo-1H-pyridin-3-yl)sulfonyl]pyridine-3-carboxamide]
32 |  | < 3000 nM | C[C@@H]1CN(c2nc(-c3ccc(C(F)(F)F)cc3)ccc2C(=O)NS(=O)(=O)c2cccc(N)n2)C(C)(C)C1 [Compound 2296, N-[(6-amino-2-pyridyl)sulfonyl]-6-[4-(trifluoromethyl)phenyl]-2-[(4S)-2,2,4-trimethylpyrrolidin-1-yl]pyridine-3-carboxamide]

— patent US10758534B2 (Vertex Pharmaceuticals Incorporated, priority 2014, dated 2020)
